Assay results as given in patent publication US20250243488A1, “METHODS OF MODULATING PROGRANULIN EXPRESSION USING ANTISENSE OLIGONUCLEOTIDES TARGETING REGULATORY RNAS” (Camp4 Therapeutics Corporation, priority 2022, published 2025).
Oligonucleotides are written 5' to 3', each unit as a sugar letter and its base; * is a phosphorothioate linkage, no mark a phosphodiester; rarer units and linkages stand in square brackets, end groups in braces. Plain capitals give the bases only. e = 2'-O-(2-methoxyethyl) (MOE); l = locked nucleic acid (LNA); [5mC] = 5-methylcytosine

Tested on: mGrn mRNA
Assay: mGrn mRNA qPCR in Neuro2a cells transfected with ASOs
Format: cell-based, mouse
Conditions: for 40 nM FC (mGrn mRNA) / 80 nM FC (mGrn mRNA) / 160 nM FC (mGrn mRNA): transfection; for mGRN mRNA FC: Table 14, 100 nM, 48 hours, normalized to sNTC3
Method: 57 ASOs targeting the Grn promoter (− strand) were screened in Neuro2a cells. Neuro2a cells were transfected with 100 nM of each of the ASOs listed in Table 14 and cells were harvested 48 hours later for Grn mRNA quantification using qPCR. Housekeeping genes for normalization were Gapdh and Ppia. Relative Grn mRNA levels were normalized to mRNA extracted from cells treated with sNTC3 (steric nontargeting control).
Next, 26 ASOs based on parent ASOs CO-3544 and CO-3595 were designed with different modifications and base walking. Neuro2a cells were transfected with either […] or 160 nM of each of the ASOs listed in Table 15, and cells were harvested 48 hours later for mGrn mRNA quantification using qPCR. As controls, cells were treated with sNTC3 or no ASO. Housekeeping genes for normalization were Gapdh and Ppia. Relative Grn mRNA levels were normalized to mRNA extracted from cells treated with sNTC3.
CO-3544 was modified to include PO/PS bonds and the efficacy in upregulating mGrn mRNA was determined.
Similarly, CO-3595 was modified to include varying PO/PS internucleotide bonds and the efficacy of these ASOs in upregulating mGrn mRNA was determined in Neuro2A cells.

CO-5310: CO-3595 modified to include varying PO/PS internucleotide bonds (antisense e[5mC]*e[5mC]*eTeGeAeAe[5mC]eTeGeTeAeTeGeG*e[5mC]*eT*eG*eA*e[5mC]*e[5mC])
40 nM FC (mGrn mRNA) (Table 16, Neuro2A): 1.1 FC
80 nM FC (mGrn mRNA) (Table 16, Neuro2A): 1.1 FC
160 nM FC (mGrn mRNA) (Table 16, Neuro2A): 1.3 FC

CO-3582: ASO targeting the Grn promoter (− strand) (antisense e[5mC]*eA*e[5mC]*eA*eT*e[5mC]*eT*eA*e[5mC]*eA*eG*eT*eG*e[5mC]*e[5mC]*e[5mC]*eG*eG*eT*eA)
mGRN mRNA FC (Neuro2a): 1.1 FC

CO-5305: CO-3595 modified to include varying PO/PS internucleotide bonds (antisense e[5mC]*e[5mC]*eT*eG*eA*eA*e[5mC]eTeGeTeAeTeGeGe[5mC]eTeG*eA*e[5mC]*e[5mC])
40 nM FC (mGrn mRNA) (Table 16, Neuro2A): 1.2 FC
80 nM FC (mGrn mRNA) (Table 16, Neuro2A): 1.4 FC
160 nM FC (mGrn mRNA) (Table 16, Neuro2A): 1.6 FC

CO-3591: ASO targeting the Grn promoter (− strand) (antisense e[5mC]*e[5mC]*eA*e[5mC]*e[5mC]*eA*eG*e[5mC]*e[5mC]*eT*eA*e[5mC]*eT*e[5mC]*e[5mC]*eA*e[5mC]*eA*eG*eG)
mGRN mRNA FC (Neuro2a): 1.4 FC

CO-5314: CO-3595 modified to include varying PO/PS internucleotide bonds (antisense l[5mC]*l[5mC]*eT*lG*lA*eA*l[5mC]*eT*lG*eT*lA*eT*lG*eG*l[5mC]*eT*lG*eA*l[5mC]*l[5mC])
40 nM FC (mGrn mRNA) (Table 16, Neuro2A): 1.5 FC
80 nM FC (mGrn mRNA) (Table 16, Neuro2A): 1.7 FC
160 nM FC (mGrn mRNA) (Table 16, Neuro2A): 1.5 FC

CO-5291: CO-3544 modified to include PO/PS bonds (antisense eG*eT*eT*e[5mC]*eTe[5mC]e[5mC]e[5mC]eTeAeGe[5mC]eTeGeTeGeT*eA*eG*eT)
40 nM FC (mGrn mRNA) (Table 15, Neuro2a): 0.9 FC
80 nM FC (mGrn mRNA) (Table 15, Neuro2a): 1.0 FC
160 nM FC (mGrn mRNA) (Table 15, Neuro2a): 0.9 FC

CO-5309: CO-3595 modified to include varying PO/PS internucleotide bonds (antisense e[5mC]*e[5mC]*eTeGeAeAe[5mC]eTeGeTeAeTeGeGe[5mC]eT*eG*eA*e[5mC]*e[5mC])
40 nM FC (mGrn mRNA) (Table 16, Neuro2A): 1.3 FC
80 nM FC (mGrn mRNA) (Table 16, Neuro2A): 1.7 FC
160 nM FC (mGrn mRNA) (Table 16, Neuro2A): 2.0 FC

CO-3574: ASO targeting the Grn promoter (− strand) (antisense eG*e[5mC]*eT*e[5mC]*eT*e[5mC]*e[5mC]*eT*eA*eA*e[5mC]*eT*eG*eT*eG*eG*eG*eT*eG*e[5mC])
mGRN mRNA FC (Neuro2a): 1.3 FC

CO-3545: ASO targeting the Grn promoter (− strand) (antisense e[5mC]*eT*eA*eG*eT*eG*eG*eA*eA*eG*eA*eT*eG*eT*e[5mC]*eG*eG*eA*eG*e[5mC])
mGRN mRNA FC (Neuro2a): 1.7 FC

CO-3598: ASO targeting the Grn promoter (− strand) (antisense eT*eA*eA*eG*eA*eA*eG*e[5mC]*e[5mC]*e[5mC]*eT*e[5mC]*eA*e[5mC]*eG*eG*eA*eA*eT*eT)
mGRN mRNA FC (Neuro2a): 1.3 FC

CO-3586: ASO targeting the Grn promoter (− strand) (antisense eA*eA*eT*e[5mC]*eT*eA*eG*eT*eT*eT*e[5mC]*eA*eA*eG*eT*eT*e[5mC]*e[5mC]*eT*e[5mC])
mGRN mRNA FC (Neuro2a): 1.4 FC

CO-3559: ASO targeting the Grn promoter (− strand) (antisense eG*eT*eT*eG*eT*eA*eG*eA*eG*eA*e[5mC]*eA*e[5mC]*e[5mC]*eT*e[5mC]*e[5mC]*e[5mC]*e[5mC]*eG)
mGRN mRNA FC (Neuro2a): 1.4 FC

CO-3553: ASO targeting the Grn promoter (− strand) (antisense e[5mC]*eA*eA*eG*eT*eG*eT*eT*e[5mC]*eT*e[5mC]*eT*eG*e[5mC]*eG*eG*e[5mC]*eG*eG*e[5mC])
mGRN mRNA FC (Neuro2a): 1.3 FC

CO-5290: CO-3544 modified to include PO/PS bonds (antisense eG*eT*eTe[5mC]eTe[5mC]e[5mC]e[5mC]eTeAeGe[5mC]eTeGeTeGeT*eA*eG*eT)
40 nM FC (mGrn mRNA) (Table 15, Neuro2a): 1.1 FC
80 nM FC (mGrn mRNA) (Table 15, Neuro2a): 1.0 FC
160 nM FC (mGrn mRNA) (Table 15, Neuro2a): 1.0 FC
